Values joined by “and” are separate entries in the source; they are usually repeats but may differ in a detail not shown here. Equal values may be shown once. Read-outs that look alike come from different tables or passages of the source. Marks after values point to notes of the source that are not given here.
What was measured:
[1] = tested on: TbAT1-KO: T. brucei cell line lacking the TbAT1(P2) transporter gene; experiment: microbe, parasite or virus in culture; assay type: cell-based, Trypanosoma brucei brucei; conditions: for EC50: Trypanosoma brucei; for RF (TbAT1-KO): resistance factor: ratio of EC50 of resistant and Lister 427WT
Experimental: (§1) Drug susceptibility tests with Lister 427WT, TbAT1-KO[48], B48[26] and ISMR1[27] were performed using an assay based on the viability indicator dye resazurin in 96-well plates, each well containing 2 × 10^4 cells. The plates were incubated for 48 h with a doubling dilution series of the test compounds in HMI-9/fetal bovine serum at 37 °C/5% CO2 (23 dilutions starting at 100 µM, except for the pentamidine control (50 µM)), after which resazurin (20 µL of 125 µg mL^−1 resazurin sodium salt solution was added to each well (containing 200 µL of cells and test compound)) was added to each well and the plates incubated for another 24 h. Fluorescence was determined using a FLUOstar Optima (BMG Labtech, Durham, NC) and the results fitted to a sigmoid curve with variable slope using Prism 5.0 or Prism 7.04 (GraphPad, San Diego, CA).

[2] = tested on: ISMR1: isometamidium-resistant T. brucei cell line; experiment: microbe, parasite or virus in culture; assay type: cell-based, Trypanosoma brucei brucei; conditions: for EC50: Trypanosoma brucei; for RF (ISMR1): resistance factor vs Lister 427WT
Experimental: as §1

[3] = tested on: T. b. brucei Lister 427WT; experiment: Drug susceptibility test (resazurin), Lister 427WT; assay type: cell-based, Trypanosoma brucei brucei; conditions: Trypanosoma brucei
Experimental: as §1

[4] = tested on: B48: pentamidine, diminazene and melaminophenyl arsenical resistant T. brucei line; experiment: microbe, parasite or virus in culture; assay type: cell-based, Trypanosoma brucei brucei; conditions: for EC50: Trypanosoma brucei; for RF (B48): resistance factor vs Lister 427WT
[5] = tested on: T. b. brucei AnTAR1.1 PPYRE9; experiment: Mouse model of stage 2 HAT (BLI, parasitaemia, SL-RNA qPCR); assay type: in vivo; conditions: for BLI of the head region, RLU data: individual animals; for RLU data, individual mice: Melarsoprol
Experimental: […] Treatment was initiated at 21 dpi. […] Mice were injected i.p. with […] of D-luciferin and anaesthetised using isoflurane. The luminescent signal was acquired from both the dorsal and ventral side of the animals. […] Animals subjected to the different treatment schemes (from 4 wpi) were additionally imaged over a 5 min exposure time for enhanced sensitivity. […] Tissues were weighed and RNA was extracted using the RNeasy Plus Mini Kit (Qiagen) according to the manufacturer’s recommendations. […] A list of primers used is provided in the Supplementary Methods section of the Supplementary Information. BLI images from the IVIS Spectrum In Vivo Imaging System (Perkin Elmer) were analysed using LivingImage v4.3.1. SoftWoRx suite 2.0 for microscopy (image deconvolution), then processing using the Fiji software.

[6] = tested on: Lister 427WT T. b. brucei; experiment: Adenosine deaminase susceptibility (drug sensitivity with/without 2 µM deoxycoformycin); assay type: cell-based, Trypanosoma brucei brucei
Experimental: as §1, with “CA). […]” for “CA).”
Adenosine deaminase susceptibility
in the presence or absence of 2 µM 2’-deoxycoformycin. […]

T. b. brucei Squib 427 = experiment: Mouse model of acute HAT; conditions: Suramin 10 mg/kg sid IP
Experimental: Drinking water and food were available ad libitum throughout the experiment. […] The reference drug suramin was formulated in phospahte-buffered saline (PBS) at 2.5 mg mL^−1 and administered s.i.d. i.p. for 5 days at 10 mg kg^−1 (n = 3). All treatments were initiated 30 min prior to the i.p. infection. […] Parasitaemia was determined by microscopic evaluation of tail vein blood samples at 4, 7, 10, 14 and 21 dpi (pre-set endpoint). As a test of cure, blood samples (250 µL) were collected from treated mice at 21 dpi and were sub-inoculated i.p. in naive Swiss mice (n = 3), followed by monitoring of parasitaemia as follow-up.

[7] = read-out: TbAT1-KO EC50, mean and SEM, n = 3
[8] = mean and SEM, n = 3, read-out: ISMR1 EC50
[9] = source data, read-out: ISMR1 EC50, AVG
[10] = source data, read-out: s427 EC50, AVG
[11] = mean and SEM, n = 3, read-out: B48 EC50
[12] = source data, read-out: B48 EC50, AVG

SMILES: CC[n+]1c(-c2ccccc2)c2cc(N/N=N/c3cccc(C(=N)N)c3)ccc2c2ccc(N)cc21 [Isometamidium, reference compound]
- EC50 ([1]; read-out: TbAT1-KO EC50, AVG, source data): 736 nM
- EC50 [1, 7]: 750 ± 140 nM
- RF (TbAT1-KO) [1]: 1.2
- EC50 [2, 8]: 3100 ± 500 nM
- EC50 [2, 9]: 5050 nM
- RF (ISMR1) [2]: 4.8***
- EC50 ([3]; read-out: Lister 427 EC50, mean and SEM, n = 3): 650 ± 85 nM
- EC50 [3, 10]: 758 nM
- EC50 [4, 11]: 560 ± 130 nM
- EC50 [4, 12]: 514 nM
- RF (B48) [4]: 0.85

SMILES: Nc1nc(N)nc(Nc2ccc([As]3SCC(CO)S3)cc2)n1 (stereo not shown) [Melarsoprol, reference compound]
- BLI of the head region, RLU data ([5]; 3 wpi (start of treatment, 21 dpi)): 20700000 RLU and 53700000 RLU
- BLI of the head region, RLU data ([5]; 4 wpi): 96900 RLU and 114000 RLU
- BLI of the head region, RLU data ([5]; 5 wpi): 83900 RLU and 96500 RLU
- BLI of the head region, RLU data ([5]; 6 wpi): 85000 RLU and 111000 RLU
- BLI of the head region, RLU data ([5]; 7 wpi): 90100 RLU and 74800 RLU
- BLI of the head region, RLU data ([5]; 8 wpi): 81700 RLU and 77100 RLU
- BLI of the head region, RLU data ([5]; 9 wpi): 73000 RLU and 85000 RLU
- RLU data, individual mice ([5]; 3 wpi): 133100000 RLU and 14890000 RLU
- RLU data, individual mice ([5]; 4 wpi): 121700 RLU and 135100 RLU
- RLU data, individual mice ([5]; 5 wpi): 112200 RLU and 109500 RLU
- RLU data, individual mice ([5]; 6 wpi): 106700 RLU and 93980 RLU
- RLU data, individual mice ([5]; 7 wpi): 99910 RLU and 79400 RLU
- RLU data, individual mice ([5]; 8 wpi): 117400 RLU and 101400 RLU
- RLU data, individual mice ([5]; 9 wpi): 93050 RLU and 80330 RLU
- RLU data, individual mice ([5]; 11 wpi): 77170 RLU and 73440 RLU
- RLU data, individual mice ([5]; 12 wpi): 62170 RLU and 64300 RLU
- RLU data, individual mice ([5]; 14 wpi): 67840 RLU and 67090 RLU
- parasite burdens in brain, spleen and fat by SL-RNA qPCR ([5]; tissues collected at 121 dpi): complete absence of parasite burdens
- luminescent signal in the head region ([5]; to levels similar to a non-infected control mouse): rapid decline of the signal

SMILES: N=C(N)c1ccc(OCCCCCOc2ccc(C(=N)N)cc2)cc1 [Pentamidine, reference compound]
- EC50 [1, 7]: 18 ± 2 nM
- RF (TbAT1-KO) [1]: 1.8**
- EC50 [2, 8]: 140 ± 40 nM
- EC50 [2, 9]: 138 nM
- RF (ISMR1) [2]: 13.8**
- EC50 ([3]; mean and SEM, n = 3, read-out: Lister 427 EC50): 11 ± 1 nM
- EC50 [3, 10]: 9.93 nM
- EC50 [4, 11]: 990 ± 160 nM
- EC50 [4, 12]: 877 nM
- RF (B48) [4]: 94.6***

SMILES: Nc1ncnc2c1ccn2[C@@H]1O[C@H](CO)[C@@H](O)[C@H]1O [Tubercidin (6)]
- EC50 ([6]; DCF +, single replicate, read-out: EC50): 173 nM and 283 nM and 470 nM
- EC50 ([6]; DCF -, single replicate, read-out: EC50): 227 nM and 250 nM
- EC50 ([6]; Trypanosoma brucei, DCF +, average of replicates, read-out: EC50 AVG): 309 nM
- EC50 ([6]; Trypanosoma brucei, DCF +, read-out: EC50 Reported value): 310 ± 70 nM
- EC50 ([6]; Trypanosoma brucei, DCF -, average of replicates, read-out: EC50 AVG): 223 nM
- EC50 ([6]; Trypanosoma brucei, DCF -, read-out: EC50 Reported value): 220 ± 10 nM
- EC50 ([6]; Trypanosoma brucei, DCF -, single replicate, read-out: EC50): 194 nM

SMILES: Cc1ccc(C(=O)Nc2ccc(S(=O)(=O)O)c3cc(S(=O)(=O)O)cc(S(=O)(=O)O)c23)cc1NC(=O)c1cccc(NC(=O)Nc2cccc(C(=O)Nc3cc(C(=O)Nc4ccc(S(=O)(=O)O)c5cc(S(=O)(=O)O)cc(S(=O)(=O)O)c45)ccc3C)c2)c1 [suramin, reference compound]
- parasitaemia, individual mice (T. b. brucei Squib 427; 4 dpi): 0
- parasitaemia, individual mice (T. b. brucei Squib 427; 7 dpi): 0
- parasitaemia, individual mice (T. b. brucei Squib 427; 10 dpi): 0
- parasitaemia, individual mice (T. b. brucei Squib 427; 14 dpi): 0
- parasitaemia, individual mice (T. b. brucei Squib 427; 21 dpi): 0

Reference: PMC6895180 (Nature Communications, 2019)
